From patent US20240009170A1, “INHIBITION OF GLYCOGEN SYNTHASE KINASE-3 (GSK-3)” (Brown University, priority 2020, published 2024)

Legend:
Assay type in all cases: cell-based, Human
SW480 tumor cells = assay: Co-culture of CD8+ donor-derived healthy T cells and SW480 tumor cells
Experimental: Isolation of donor derived CD8+ T cells. An Easy Step Human CD8+ T Cell Isolation Kit was used to isolated CD8+ T cells from a donor PBMC sample via negative selection (Cat #, 17913, Stem Cell Technologies, Vancouver, Canada).
Immune cell co-culture experiments. Co-culture experiments were conducted with GFP+ SW480 or HCT-116 colorectal cancer cells and either NK-92 natural killer cells or TALL-104 T cells in a 48-well plate, in the presence or absence of 9-ING-41. HCT-116 cells were labeled using CellTracker™ Green CMFDA (5-chloromethylfluorescein diacetate), immune cells (NK-92, TALL-104) were labeled using CellTracker™ Blue CMAC Dye (7-amino-4-chloromethylcoumarin), and ethidium homodimer-1 (EthD-1) was used as a marker of cell death (Invitrogen, Thermo Fisher Scientific, Waltham, MA, USA).
TALL-104 cells are a human leukemic T cell line. […] Healthy CD8+ T cells were isolated from a donor blood sample consistent with an IRB-approved protocol. A co-culture of GFP+ SW480 tumor cells and Green CM FDA-labeled CD8+ donor-derived healthy T cells was then treated with 9-ING-41 and the % of dead cells out of total cells was quantified after twenty-four hours. […] The data was then normalized, as described earlier.
Pre-treatment with 9-ING-41 sensitizes SW480 tumor cells to immune cell-mediated cell killing. […]

NK-92 cells = assay: Cytokine profile of immune cell culture supernatant, NK-92; conditions: 1 μM, 48 hours
Experimental: Collection of cell culture supernatants used in cytokine measurements. Cells were plated at 3.5×10^4 cells in a 48-well plate (Thermo Fisher Scientific, Waltham, MA, USA) in complete medium and incubated at 37° C. with 5% CO2. At twenty-four hours after plating, almost all the tumor cells were adherent to the bottom of the flask and the complete medium was replaced with drug-containing medium. Subsequently, the culture supernatants were collected after forty-eight hours of incubation and were frozen at −80° C. until the measurement of cytokines was performed. The day of analysis, samples were thawed and centrifuged to remove cellular debris.
Human cytokine profiling. Human cell line culture supernatants were analyzed using an R&D systems Human Premixed Multi-Analyte Kit (R&D Systems, Inc., Minneapolis, MN, USA) and a Luminex 200 Instrument (LX200-XPON-RUO, Luminex Corporation, Austin, TX, USA) according to the manufacturer's instructions. […]
9-ING-41 increases secreted cytotoxic proteins IFN-v, Granzyme B, and TRAIL in immune cells. […] Here, the inventors determined how 9-ING-41 treatment impacts the immune cell cytokinome. […]

NK-92 = assay: Flow cytometric analysis of cell surface markers, NK-92; conditions: 48 hours
Experimental: (§1) FIG. 12 is a set of bar graphs showing flow cytometric analyses of cell surface markers of tumor and immune cells treated with 9-ING-41 in vitro. FIG. 12(A) HCT-116, FIG. 12(B) HT-29, FIG. 12(C) TALL-104, and FIG. 12(D) NK-92 cells were treated with indicated concentrations of 9-ING-41 for forty-eight hours, stained for indicated cell surface marker expression, and analyzed with a BD LSRII. Statistical significance was determined using two-tailed unpaired T tests.
(§2) To further understand the differential 9-ING-41-mediated impacts on protein expression, the inventors treated tumor and immune cells in vitro with 9-ING-41, then performed a flow cytometric analysis for expression of cell surface markers. […] A similar trend occurred in HT-29 cells, although not statistically significant. […] FIG. 10(C). […] FIG. 10(D).

TALL-104 = assay: Flow cytometric analysis of cell surface markers, TALL-104; conditions: compared to DMSO treatment alone
Experimental: as §1, §2

## Cn1cc(C2=C(c3coc4ccc(F)cc34)C(=O)NC2=O)c2cc3c(cc21)OCO3 [9-ING-41]
SW480 tumor cells; 24 hours, normalized
  tumor cell death in co-cultures with CD8+ donor-derived healthy T cells: Even more impressive tumor cell death
SW480 tumor cells; pre-treatment of tumor cells, 24 hours of co-culture
  tumor cell death after tumor cell pre-treatment, CD8+ T cells: statistically significant increase in tumor cell death
NK-92 cells
  IFN-γ and TRAIL: increases
  concentration of secreted granzyme B: decreases
NK-92
  TRAIL and LAG3 surface expression: increases
  checkpoint molecule NKG2A surface expression: statistically significant decreases
TALL-104
  TRAIL expression: significant decreased
